#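 How tested: cells in 96-well plates exposed to compound for 48 hours at five concentrations. GI50 is the concentration that inhibits growth by half. TGI marks complete inhibition of growth.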
# What was measured:
# Assay in all cases: DTP human tumour cell line panel, 48 h
# [1] = tested on: A498 renal
# [2] = tested on: TK-10 renal
# [3] = tested on: HT29 colon
# [4] = tested on: SF-539 CNS
# [5] = tested on: LOX IMVI melanoma
# [6] = tested on: SR leukemia
# [7] = tested on: OVCAR-8 ovarian
# [8] = tested on: UACC-62 melanoma
# [9] = tested on: SN12C renal
# [10] = tested on: MOLT-4 leukemia
# [11] = tested on: SW-620 colon
# [12] = tested on: CAKI-1 renal
# [13] = tested on: EKVX NSCLC
# [14] = tested on: SK-MEL-5 melanoma
# [15] = tested on: OVCAR-4 ovarian
# [16] = tested on: PC-3 prostate
# [17] = tested on: HCT-15 colon
# [18] = tested on: OVCAR-5 ovarian
# [19] = tested on: NCI-H460 lung
# [20] = tested on: NCI-H226 lung
# [21] = tested on: 786-0 renal
# [22] = tested on: HOP-62 NSCLC
# [23] = tested on: MDA-MB-435
# [24] = tested on: KM12 colon
# [25] = tested on: DU-145 prostate
# [26] = tested on: HCC-2998 colon
# [27] = tested on: CCRF-CEM leukemia
# [28] = tested on: U251 CNS
# [29] = tested on: NCI-H522 lung
# [30] = tested on: ACHN renal
# [31] = tested on: SK-OV-3 ovarian
# [32] = tested on: SK-MEL-28 melanoma
# [33] = tested on: MALME-3M melanoma
# [34] = tested on: BT-549 breast
# [35] = tested on: SNB-75 CNS
# [36] = tested on: SNB-19 CNS
# [37] = tested on: HCT-116 colon
# [38] = tested on: A549 NSCLC
# [39] = tested on: NCI/ADR-RES ovarian
# [40] = tested on: IGROV1 ovarian
# [41] = tested on: MCF7 breast
# [42] = tested on: HL-60(TB) leukemia
# [43] = tested on: SF-295 CNS
# [44] = tested on: UACC-257 melanoma
# [45] = tested on: UO-31 renal
# [46] = tested on: OVCAR-3 ovarian
# [47] = tested on: M14 melanoma
# [48] = tested on: SK-MEL-2 melanoma
# [49] = tested on: HS 578T breast
# [50] = tested on: T-47D breast
# [51] = tested on: NCI-H23 lung
# [52] = tested on: MDA-MB-231 breast
# [53] = tested on: K-562 leukemia
# [54] = tested on: COLO 205 colon
# [55] = tested on: SF-268 CNS
# [56] = tested on: HOP-92 NSCLC
structure (smiles),measurement,setting,value
CC(Nc1c(C#N)cnc2ccc(-c3cncc(O)c3)cc12)c1ccccc1 (configuration not stated),GI50,[1],2.72 µM
same,TGI,[1],18 µM
same,GI50,[2],4.45 µM
same,TGI,[2],50 µM
same,GI50,[3],18.1 µM
same,TGI,[3],> 100 µM
same,GI50,[4],2.14 µM
same,TGI,[4],11 µM
same,GI50,[5],1.31 µM
same,TGI,[5],8.51 µM
same,GI50,[6],2.26 µM
same,TGI,[6],> 100 µM
same,GI50,[7],1.83 µM
same,TGI,[7],15.4 µM
same,GI50,[8],1.7 µM
same,TGI,[8],4.16 µM
same,GI50,[9],0.721 µM
same,TGI,[9],6.68 µM
same,GI50,[10],2.11 µM
same,TGI,[10],> 100 µM
same,GI50,[11],3.56 µM
same,TGI,[11],11.4 µM
same,GI50,[12],2.24 µM
same,TGI,[12],13.5 µM
same,GI50,[13],2.07 µM
same,TGI,[13],12.6 µM
same,GI50,[14],1.24 µM
same,TGI,[14],2.57 µM
same,GI50,[15],1.59 µM
same,TGI,[15],9.49 µM
same,GI50,[16],1.65 µM
same,TGI,[16],> 100 µM
same,GI50,[17],1.69 µM
same,TGI,[17],11.5 µM
same,GI50,[18],4.3 µM
same,TGI,[18],30.7 µM
same,GI50,[19],2.57 µM
same,TGI,[19],11.4 µM
same,GI50,[20],1.99 µM
same,TGI,[20],13.2 µM
same,GI50,[21],2.74 µM
same,TGI,[21],10.4 µM
same,GI50,[22],2.39 µM
same,TGI,[22],16 µM
same,GI50,[23],2.94 µM
same,TGI,[23],15.5 µM
same,GI50,[24],3.09 µM
same,TGI,[24],12.2 µM
same,GI50,[25],1.48 µM
same,TGI,[25],10.6 µM
same,GI50,[26],3.73 µM
same,TGI,[26],14.8 µM
same,GI50,[27],2.4 µM
same,TGI,[27],> 100 µM
same,GI50,[28],1.88 µM
same,TGI,[28],17.1 µM
same,GI50,[29],2.31 µM
same,TGI,[29],13.5 µM
same,GI50,[30],1.4 µM
same,TGI,[30],10.7 µM
same,GI50,[31],3.38 µM
same,TGI,[31],10.7 µM
same,GI50,[32],1.86 µM
same,TGI,[32],10.8 µM
same,GI50,[33],0.407 µM
same,TGI,[33],3.4 µM
same,GI50,[34],0.547 µM
same,TGI,[34],4.54 µM
same,GI50,[35],0.961 µM
same,TGI,[35],17.6 µM
same,GI50,[36],1.9 µM
same,TGI,[36],7.66 µM
same,GI50,[37],2.4 µM
same,TGI,[37],12.4 µM
same,GI50,[38],3.57 µM
same,TGI,[38],47.3 µM
same,GI50,[39],3.36 µM
same,TGI,[39],23.5 µM
same,GI50,[40],0.948 µM
same,TGI,[40],3.91 µM
same,GI50,[41],1.91 µM
same,TGI,[41],10.2 µM
same,GI50,[42],4.22 µM
same,TGI,[42],> 100 µM
same,GI50,[43],2.87 µM
same,TGI,[43],11.7 µM
same,GI50,[44],4.32 µM
same,TGI,[44],45.6 µM
same,GI50,[45],0.408 µM
same,TGI,[45],5.61 µM
same,GI50,[46],1.05 µM
same,TGI,[46],5.84 µM
same,GI50,[47],2.08 µM
same,TGI,[47],11.6 µM
same,GI50,[48],2.03 µM
same,TGI,[48],6.44 µM
same,GI50,[49],1.08 µM
same,TGI,[49],4.82 µM
same,GI50,[50],1.68 µM
same,TGI,[50],13.8 µM
same,GI50,[51],1.86 µM
same,TGI,[51],7.88 µM
same,GI50,[52],1.67 µM
same,TGI,[52],11.9 µM
same,GI50,[53],2.51 µM
same,TGI,[53],> 100 µM
same,GI50,[54],14.9 µM
same,TGI,[54],36.1 µM
same,GI50,[55],1.99 µM
same,TGI,[55],12 µM
same,GI50,[56],0.409 µM
same,TGI,[56],6.02 µM
